Assay results published in patent US8212058B2, “Fluorescent photoprobe for the imaging of endothelin receptors” (Universitatskilinikum Munster, priority 2005, dated 2012).
Entries after “also recorded” stand apart in the source; their conditions may differ.

Assays:
[1] = molecular target: T1, ETAR in MDA-MB-435 tumor xenografts (Mus musculus, UniProt Q61614); assay: In vivo FMT/FRI imaging of MDA-MB-435 murine xenograft models; design: species or system mice
T1 construct: from tissue; host or cells: MDA-MB-435 tumour xenografts in mice (host-derived cells, e.g. endothelial)
T1 sequence (Q61614 21-427): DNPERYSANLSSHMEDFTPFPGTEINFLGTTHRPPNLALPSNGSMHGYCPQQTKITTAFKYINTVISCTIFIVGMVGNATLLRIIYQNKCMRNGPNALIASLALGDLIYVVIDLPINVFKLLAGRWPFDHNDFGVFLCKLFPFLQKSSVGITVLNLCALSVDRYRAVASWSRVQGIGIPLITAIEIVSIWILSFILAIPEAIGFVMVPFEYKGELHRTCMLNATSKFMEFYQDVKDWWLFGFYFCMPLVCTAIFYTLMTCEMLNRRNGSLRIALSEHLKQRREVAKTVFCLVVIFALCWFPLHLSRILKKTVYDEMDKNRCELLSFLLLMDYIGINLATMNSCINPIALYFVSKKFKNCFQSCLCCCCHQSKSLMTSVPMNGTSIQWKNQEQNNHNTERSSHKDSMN
Source text: FIG. 7: 3D-FMTexamination of MDA-MB-435 murine xenograft models.

[2] = system: ETA receptor on MCF-7 human breast adenocarcinoma cells; assay: In vitro cell binding assay by fluorescence microscopy, MCF-7 cells; conditions: for cellular fluorescence signal (fluorescence microscopy): 45 min at 4° C., nmol amounts per well
Description: Human breast cancer cell line MCF-7 (ATCC-No. HTB-22) was cultured in RPMI 1640 (Invitrogen Corporation, San Diego, USA) supplemented with 10% fetal calf serum, penicillin and streptomycin. Cells were grown routinely in a monolayer culture at 37° C. in a 5% CO2 humidified air atmosphere. Antibodies were murine IgGs and specific for the endothelin A receptor.
Cells were seeded in 4-well plates (Nunc, Wiesbaden) and incubated in culture medium (0.5 ml/well) overnight. For binding studies cells were washed twice with PBS and resuspended in 150 μl binding-buffer (20 mM HEPES in PBS with Ca^2+/Mg^2+, 0.2% BSA, 0.1% Glucose, pH 7.4). […] After an incubation period of 45 min at 4° C. cells were washed twice with PBS and were resuspended in binding buffer. For competition binding studies free ETAR antagonist (final amount 50 nmol) or ETAR antibodies (1.3 μg) were added to each well for 45 min at 4° C. Cells could be directly visualized by fluorescence microscopy (40× and 60× objective, Nikon TE 2000-S, Nikon-Düsseldorf). The microscope was equipped with a mercury vapour lamp (100 W), 620/775 nm and 545/675 nm (excitation/emission) filters (AHF Analysentechnik, Tübingen), a Nikon DXM1200F camera and ACT1/DXM1200F software (Nikon, Japan).
Binding of the labelled antagonist could be directly analyzed by fluorescence microscopy.
(§1) Cell binding assays. Cells (HT-1080 fibrosarcomas, MDA-MB435 ductal carcinomas, MCF-7 adenocarcinomas) were seeded in 4-well plates (Nunc GmbH & Co. KG, Wiesbaden, Germany) and incubated in culture medium (0.5 ml/well) overnight. For binding studies cells were washed twice with PBS and resuspended in 150 μl binding buffer (20 mM HEPES in PBS with Ca^2+/Mg^2+, 0.2% BSA, 0.1% Glucose, pH 7.4). […] After an incubation period of 45 min at 4° C. cells were washed twice with PBS and were resuspended in binding buffer. […] Cells could be directly visualised by fluorescence microscopy (40× objective, Nikon TE 2000-S, Nikon-Düsseldorf, Germany). The microscope was equipped with a mercury vapour lamp (100 W), 620/775 nm and 545/675 nm (excitation/emission) filters (AHF Analysentechnik, Tbingen, Germany), a Nikon DXM1200F camera and ACT1/DXM1200F software (Nikon, Japan).
(§2) In vitro cell binding assays. […] Binding of the labelled antagonist could be directly analysed by fluorescence microscopy.

[3] = system: ETA-negative MDA-MB-435 human breast carcinoma cells; assay: In vitro cell binding assay by fluorescence microscopy, MDA-MB-435 cells; assay type: cell-based; conditions: 45 min at 4° C.
Source text: In vitro cell binding assays.

[4] = molecular target: T2, ETA receptor on HT-1080 human fibrosarcoma cells (Homo sapiens, UniProt P25101); assay: In vitro cell binding assay by fluorescence microscopy, HT-1080 cells; assay type: cell-based; conditions: for cellular fluorescence signal (fluorescence microscopy): HT-1080 cells, 45 min at 4° C.
T2 construct: The highest amount of protein is found in human fibrosarcoma cells HT-1080; host or cells: HT-1080
T2 sequence (P25101 21-427): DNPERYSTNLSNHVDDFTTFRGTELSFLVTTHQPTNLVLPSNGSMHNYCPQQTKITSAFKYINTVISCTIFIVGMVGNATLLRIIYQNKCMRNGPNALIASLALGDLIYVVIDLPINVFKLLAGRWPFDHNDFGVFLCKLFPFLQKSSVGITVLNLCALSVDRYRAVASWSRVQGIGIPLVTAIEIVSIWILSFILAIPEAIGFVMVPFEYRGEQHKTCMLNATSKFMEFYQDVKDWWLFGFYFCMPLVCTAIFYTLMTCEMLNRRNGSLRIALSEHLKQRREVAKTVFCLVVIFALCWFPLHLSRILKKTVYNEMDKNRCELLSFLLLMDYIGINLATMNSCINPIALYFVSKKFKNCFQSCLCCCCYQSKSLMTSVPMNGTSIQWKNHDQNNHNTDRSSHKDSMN
Description: Cell lines and reagents. Human breast adenocarcinoma cell line MCF-7 (ATCC-No. HTB-22), MDA-MB-435 human breast carcinoma cells (ATCC-No. HTB-123) and HT-1080 human fibrosarcoma cells (ATCC-No. CCL-121) were cultured in RPMI 1640 (Invitrogen Corporation, San Diego, USA) supplemented with 10% fetal calf serum, penicillin and streptomycin. Cells were grown routinely in a monolayer culture at 37° C. in a 5% CO2 humidified air atmosphere.
as §1, §2

[5] = system: ETAR in MCF-7 tumor xenografts; assay: In vivo FMT/FRI imaging of MCF-7 tumor xenografts; design: species or system mice
endothelin receptors [6] = conditions: literature value printed for comparison (lit.; ref. 37); cited from earlier work
myocardial ETAR = molecular target: T3, myocardial ETAR (Mus musculus, UniProt Q61614); assay: In vivo FRI imaging of myocardial ETAR expression; conditions: mice, pre-dosing with PD 156707
T3 construct: from tissue; host or cells: mouse myocardium, in vivo
T3 sequence (Q61614 21-427): T1 sequence (Q61614 21-427)
Description: FIG. 6: In vivo application of the targeted fluorophore for imaging of myocardial ETAR—expression. Mice were injected with the targeted fluorophore with (middle) and without (right) pre-dosing with PD 156707. The left speciment is a saline injected control.

endothelin receptors [7] = assay: Competition binding studies with [125I]ET-1 on mouse ventricular membrane preparations; conditions: read-out: dissociation constant KD; Scatchard transformation of saturation data, mouse ventricular membranes
Description: Microsomes were prepared by homogenizing ventricles from DBA mice at 4° C. for 90 seconds in 1 ml of buffer A (10 mM EDTA, 10 mM HEPES, 0.1 mM benzamidine, pH 7.4), using a Polytron PT 3000 (Kinematica, Luceme, Switzerland). Homogenates were centrifuged at 45,000× gmax for 15 min at 4° C. The pellets were resuspended in 1 ml of buffer B (1 mM EDTA, 10 mM HEPES, 0.1 mM benzamidine, pH 7.4) and recentrifuged at 45,000× gmax for 15 min at 4° C. The pellets were resuspended in 1 ml of buffer B and centrifuged at 10,000× gmax for 10 min at 4° C. The supernatants were recentrifuged at 45,000×gmax for 15 min at 4° C. […]
For competition binding studies, the prepared membranes were resuspended in buffer D (10 mM Tris.HCl, 154 mM NaCl, 0.1 mM ascorbic acid, pH 7.4) at 0° C. […] The membrane bound radioactivity was determined in a γ-scintillation counter. Competition binding curves were analyzed by nonlinear regression analysis using the XMGRACE programme (Linux software).
Different concentrations of the prepared compound (1.0 pM-100 μM) were incubated with 40 pM [^125I]ET-1 and a fixed amount of mouse ventricular membrane preparation (10 μg) at 37° C. for 4 h. The membrane bound radioactivity was evaluated using a γ-scintillation counter and standardized on percentage of [^125I]ET-1. […]

[8] = MDA-MB-435, block (100 nmol PD 156707 10 minutes before), 1 h
[9] = MDA-MB-435, block (100 nmol PD 156707 10 minutes before), 3 h
[10] = MDA-MB-435, block (100 nmol PD 156707 10 minutes before), 5 h
[11] = MDA-MB-435, block (100 nmol PD 156707 10 minutes before), 24 h
[12] = MDA-MB-435, nativ, 24 h, 2 nmol

Which results are given for `CC[N+]1=C(/C=C/C=C/C=C2/N(CCCCCC(=O)NCCOCCOCCOCCOc3cc(CC4=C(c5ccc6c(c5)OCO6)C(=O)OC4(O)c4ccc(OC)cc4)cc(OC)c3OC)c3ccc4c(S(=O)(=O)O)cc(S(=O)(=O)O)cc4c3C2(C)C)C(C)(C)c2c1ccc1c(S(=O)(=O)O)cc(S(=O)(=O)O)cc21` (stereo not drawn) [ETAR-Cy 5.5]?
fluorescence signal of tumor xenografts by FRI and FMT ([1]; MDA-MB 435 xenografts, 2 nmol i.v.): high fluorescence signal yields; mean (FMT-data) [1, 8]: 253.57; pmol (FMT-data) [1, 8]: 22.14 pmol; mean (FMT-data) [1, 9]: 323.25; pmol (FMT-data) [1, 9]: 17.25 pmol; mean (FMT-data) [1, 10]: 343.78; pmol (FMT-data) [1, 10]: 19.67 pmol; mean (FMT-data) [1, 11]: 273.80; pmol (FMT-data) [1, 11]: 34.80 pmol; mean (FMT-data) ([1]; MDA-MB-435, nativ, 1 h, 2 nmol): 356.89; pmol (FMT-data) ([1]; MDA-MB-435, nativ, 1 h, 2 nmol): 40.56 pmol; mean (FMT-data) ([1]; MDA-MB-435, nativ, 3 h, 2 nmol): 326.33; pmol (FMT-data) ([1]; MDA-MB-435, nativ, 3 h, 2 nmol): 27.67 pmol; mean (FMT-data) ([1]; MDA-MB-435, nativ, 5 h, 2 nmol): 418.17; pmol (FMT-data) ([1]; MDA-MB-435, nativ, 5 h, 2 nmol): 55.50 pmol; mean (FMT-data) [1, 12]: 444.38; pmol (FMT-data) [1, 12]: 63.57 pmol; cellular fluorescence signal (fluorescence microscopy) [2]: high amounts of cellular fluorescence; cellular fluorescence signal (fluorescence microscopy) ([2]; listed as 9): specific visualization of the ETA receptor; cellular fluorescence signal (fluorescence microscopy) ([2]; listed as 17): allowed for visualisation of the ETA receptor; also recorded: only moderate cellular fluorescence; cellular fluorescence signal (fluorescence microscopy) ([2]; listed as targeted fluorochrome): strong fluorescence signal; cellular fluorescence signal (fluorescence microscopy) [3]: little to no cellular fluorescence; cellular fluorescence signal (fluorescence microscopy) ([3]; listed as 17): no accumulation of the ligand; also recorded: do not bind the tracer; cellular fluorescence signal (fluorescence microscopy) ([4]; listed as 17): higher fluorescence signal than human breast cancer cell line MCF-7; also recorded: highest cellular fluorescence; mean (FMT-data) ([5]; MCF-7, block, 1 h): 196.50; pmol (FMT-data) ([5]; MCF-7, block, 1 h): 224.00 pmol; mean (FMT-data) ([5]; MCF-7, block, 3 h): 66.50; pmol (FMT-data) ([5]; MCF-7, block, 3 h): 274.50 pmol; mean (FMT-data) ([5]; MCF-7, block, 5 h): 100.67; pmol (FMT-data) ([5]; MCF-7, block, 5 h): 201.67 pmol; mean (FMT-data) ([5]; MCF-7, block, 24 h): 125.50; pmol (FMT-data) ([5]; MCF-7, block, 24 h): 9.00 pmol; mean (FMT-data) ([5]; MCF-7, nativ, 1 h): 148.00; pmol (FMT-data) ([5]; MCF-7, nativ, 1 h): 599.00 pmol; mean (FMT-data) ([5]; MCF-7, nativ, 3 h): 79.00; pmol (FMT-data) ([5]; MCF-7, nativ, 3 h): 339.00 pmol; mean (FMT-data) ([5]; MCF-7, nativ, 5 h): 115.50; pmol (FMT-data) ([5]; MCF-7, nativ, 5 h): 473.00 pmol; mean (FMT-data) ([5]; MCF-7, nativ, 24 h): 207.67; pmol (FMT-data) ([5]; MCF-7, nativ, 24 h): 33.00 pmol; fluorescence signal of tumor xenografts by FRI and FMT ([5]; MCF-7 xenografts, 2 nmol i.v.): high fluorescence signal yields

With `COc1ccc(C2(O)OC(=O)C(c3ccc4c(c3)OCO4)=C2Cc2cc(OC)c(OC)c(OC)c2)cc1` (stereo not drawn) [PD 156707, 3-benzo[1,3]dioxol-5-yl-5-hydroxy-5-(4-methoxyphenyl)-4-(3,4,5-trimethoxybenzyl)-5H-furan-2-one, reference compound] as the molecule, how does the “tumor fluorescence of ETAR-Cy 5.5 after predosing” value ([1]; predosing with unmodified ETAR antagonist) read?
The value was “significant decrease of tumor fluorescence”.

And the “blocking of the binding/signal of the Cy 5.5 conjugate” value ([2]; PD 156707 50 nmol (tenfold) or ETAR antibodies 1.3 μg)?
The value was “could be blocked; also recorded: Blocking of the signal was possible”.

What about the “cell behaviour at higher concentrations” value ([2]; conjugate and unlabelled antagonist up to 100 nmol) of the same molecule?
The value was “cells detached from the bottom of the flask”.

What about the “blocking of the binding/signal of conjugate 17” value ([4]; HT-1080 cells (FIG. 4B), antibody 1.3 μg or tenfold excess PD 156707) of the same molecule?
Its value is “Blocking of the signal was possible”.

And the IC50 (endothelin receptors [6])?
The IC50 was 0.3 nM.

What about the “myocardial signal of the fluorophore after pre-dosing” value (myocardial ETAR) of the same molecule?
The value was “significantly reduced”.

For Cy 5.5 [reference compound], which “cellular fluorescence signal (fluorescence microscopy)” value (shortened to “cellular fluorescence signal”) [2] is on record?
The value was “Negligible signals”.

And the “cellular fluorescence signal” value [3]?
Its value is “Negligible signals”.

And the “cellular fluorescence signal” value [4]?
Its value is “Negligible signals”.

For “[^125I]ET-1: radioiodinated endothelin-1 radioligand (PerkinElmer)”, which Kd (endothelin receptors [7]) is on record?
The Kd was 0.208 ± 0.002 nM.
